Source: publication PMC8279495, “Design, Synthesis, and Biological Evaluation of Boron-Containing Macrocyclic Polyamines and Their Zinc(II) Complexes for Boron Neutron Capture Therapy” (Journal of Medicinal Chemistry, 2021)
“Also recorded” adds a separate entry of the source. Read-outs that look alike come from different tables or passages of the source.

Key:
[1] = system: HeLa S3 cells; experiment: MTT cytotoxicity assay, HeLa S3 cells; type: cell-based, human; conditions: treatment for 24 h
Experimental: (§1) HeLa S3, A549, and IMR-90 cells (1 × 10^4 cells/well) were seeded on 96-well plates (Watson) in cell culture medium. […] After incubation for 4 h, a formazan lysis solution (10% sodium dodecyl sulfate in 0.01 N HCl aq) (100 μL) was added and the resulting solution was incubated under same conditions overnight. The absorbance at λ = 570 nm was measured with a microplate reader (Bio-Rad).

[2] = system: A549 cells; experiment: MTT cytotoxicity assay, A549 cells; type: cell-based, human; conditions: read-out: IC50 A549
Experimental: as §1

[3] = system: IMR-90 cells; experiment: MTT cytotoxicity assay, IMR-90 cells; type: cell-based; conditions: 0–200 μM, treatment for 24 h, normal human fibroblast
Experimental: as §1

[4] = design: method as in earlier work; conditions: aqueous solution at 25 °C, ref 24−26; cited from earlier work
[5] = Hydrolysis of the C–B bond observed by ^11B-NMR; type: physicochemical
Text: The Zn^2+ complex of the o-form 7 was not obtained due to the carbon–boron bond cleavage that occurred upon complexation with Zn^2+, as previously described.[20]

[6] = system: A549 cells; experiment: Anti-tumor effect with thermal neutron irradiation (colony formation assay); type: cell-based, human; conditions: A549, 30 μM for 24 h, thermal neutrons 0–45 min, colony formation after 7 days
Experimental: BNCT experiments using A549 cells in the presence of the aforementioned B-containing drugs (^10B/^11B and ^10B-enriched compounds) were conducted at the Institute for Integrated Radiation and Nuclear Science, Kyoto University (KURNS). As shown in Scheme 12, A549 cells were incubated with the boron compounds (30 μM) for 24 h and suspensions (5 × 10^4 cells/mL) of these cells were irradiated with thermal neutrons [average thermal neutron flux: (1.5 ± 0.1) × 10^9 n/cm^2·s] at room temperature for various times (0, 15, 30, and 45 min). The irradiated cells were seeded on the 12 well plate (3 × 10^3 cells/well), incubated for 7 days, fixed with EtOH, and stained with crystal violet to produce visualizable images (Figure S5 in the Supporting Information). The surviving fractions were calculated as the stained colony area using the “ImageJ-plugin Colony Area”[43] software and normalized by comparing the results with those for non-irradiated cell samples (Figure 6).
A549 cells (5 × 10^5 cells/well) were seeded on 6-well plates (TrueLine, USA) and incubated in cell culture medium at 37 °C under 5% CO2 for 1 day. After removing the cell culture medium, the cells were washed gently with PBS. […] The thermal neutron flux (1.5 × 10^9 n/cm^2·s) was measured by two gold foils which were attached to the surface of the 1.5 mL tube. […]

[7] = system: double-stranded calf-thymus DNA (ctDNA); experiment: Thermal denaturation (melting temperature) of ctDNA; type: binding; conditions: pH 7.4; for Tm of ctDNA: without additive 66
Experimental: Thermal denaturation experiments of ctDNA (50 μM in phosphate) in 10 mM HEPES buffer (pH 7.4) with I = 0.02 (NaNO3) were performed on a JASCO V-550 UV/vis spectrophotometer (JASCO, Tokyo, Japan) equipped with a thermoelectric temperature controller (±0.5 °C), a stirring unit, and a 10 mm quartz cuvette. All aqueous solutions were made with purified water. The concentration of ctDNA was determined by UV absorption spectroscopy based on its molar extinction coefficient at 253 nm (ε253 = 6.6 × 10^3).[31d],[45] […] The Tm value was graphically determined from the spectral data, and the ΔTm value for each condition was calculated from the results in the presence and absence of additives.

[8] = design: method as in PMID 32192025; conditions: aqueous solution at 25 °C; cited from earlier work
[9] = system: HeLa S3 cells; experiment: Effect of inhibitors on intracellular uptake, HeLa S3 cells; type: cell-based, human; conditions: HeLa S3, 30 μM, 37 °C, 1 h
Experimental: Data represent the mean ± SD of at least three replicates.
HeLa S3 and A549 cells (5 × 10^5 cells/well) were seeded on 6-well plates (TrueLine, USA) and incubated in cell culture medium at 37 °C under 5% CO2 for 2 days (n = 4). […] To count the number of cells after treatment with the boron compounds, the cells (n = 1) were washed with PBS, detached by trypsin, and counted with a hemocytometer. For measurement of boron uptake, the cells (n = 3) were washed with PBS (1 mL ×3) and digested with 60% HNO3 aq (0.5 mL) at room temperature for 24 h, which were transferred to 15 mL centrifuge tubes with Milli-Q water (3.5 mL). These tubes were centrifuged at 3000 rpm and 4 °C for 10 min and then sample solutions were filtered. The concentration of boron atoms was determined by ICP–MS (NexION300S, PerkinElmer, Waltham, Massachusetts, USA).

[10] = Homo sapiens, HeLa S3, 0–200 μM

O=C(O)C(F)(F)F.OB(O)c1ccc(CN2CCNCCNCCNCC2)cc1 [13a, 1-[(4-Boronopheny)methyl]-1,4,7,10-tetraazacyclododecane]
IC50 [1, 10]: > 200 µM
IC50 ([2]; Homo sapiens, A549, 24 h): > 200 µM
IC50 ([3]; Homo sapiens, IMR-90, 24 h): > 200 µM
melting point: 172 to 175 °C

C1CNCCNCCNCCNCCN1 [compound 11, 1,4,7,10,13-pentaazacyclopentadecane]
pKa1 [4]: less than 2
pKa2 [4]: less than 2

C1CNCCNCCN1 [compound 9, 1,4,7-triazacyclononane]
pKa1 [4]: less than 2

c1cc(B2OC3(CCCCC3)C3(CCCCC3)O2)ccc1CN1CCNCCNCC1 [15a]
melting point: 65 to 67 °C

c1cc(CN2CCNCCNCC2)cc(B2OC3(CCCCC3)C3(CCCCC3)O2)c1 [15b]
melting point: 57 to 58 °C

[Zn+2].c1ccc(B2OC3(CCCCC3)C3(CCCCC3)O2)c(CN2CCNCCNCCNCCNCC2)c1 [20c]
half-life of C–B bond hydrolysis [5]: ~24 h

c1cc(C2OC3(CCCCC3)C3(CCCCC3)O2)ccc1CN1CCNCCNCCNCCNCC1 [^10B-17a, 1-[4-(13,15-Dioxa-15-boradispiro[5.0.5.3]pentadec-14-yl)phenyl]methyl-1,4,7,10,13-pentaazacyclopentadecane]
BNCT effect (cytotoxic activity after thermal neutron irradiation, surviving fraction) [6]: higher than that for 1 (^10B-BSH) and 2 (^10B-BPA); also recorded: higher BNCT effect than ^10B-19b and ^10B-20a

NCCCCNCCCN [compound 3, spermidine]
ΔTm of ctDNA ([7]; r = 0.1, [ctDNA(P)] = 50 μM): +7 °C
Tm of ctDNA ([7]; r = 0.1, [ctDNA(P)] = 50 μM): 73 °C
ΔTm of ctDNA ([7]; r = 0.2, [ctDNA(P)] = 50 μM): +12 °C
Tm of ctDNA ([7]; r = 0.2, [ctDNA(P)] = 50 μM): 78 °C

c1cc(B2OC3(CCCCC3)C3(CCCCC3)O2)ccc1CN1CCNCCNCCNCC1 [16a]
melting point: 129 to 131 °C

O=C(O)C(F)(F)F.OB(O)c1ccc(CN2CCNCCNCC2)cc1 [12a, 1-[(4-Boronopheny)methyl]-1,4,7-triazacyclononane]
IC50 [1, 10]: > 200 µM
IC50 ([2]; Homo sapiens, A549, 24 h): > 200 µM
IC50 ([3]; Homo sapiens, IMR-90, 24 h): > 200 µM
melting point: 138 to 141 °C

c1ccc(B2OC3(CCCCC3)C3(CCCCC3)O2)c(CN2CCNCCNCCNCCNCC2)c1 [17c, 1-[2-(13,15-Dioxa-15-boradispiro[5.0.5.3]pentadec-14-yl)phenyl]methyl-1,4,7,10,13-pentaazacyclopentadecane]
melting point: 78 to 80 °C

C1CNCCNCCN1.[Zn+2] [compound 31]
log KZnL [8]: 11.3

C1CNCCNCCNCCN1 [compound 10, 1,4,7,10-tetraazacyclododecane]
pKa1 [4]: less than 2
pKa2 [4]: less than 2

O=C(O)C(F)(F)F.OB(O)c1ccc(CN2CCNCCNCCNCCNCC2)cc1 [14a, 1-[(4-Boronopheny)methyl]-1,4,7,10,13-pentaazacyclopentadecane]
IC50 [1, 10]: > 200 µM
IC50 ([2]; Homo sapiens, A549, 24 h): > 200 µM
IC50 ([3]; Homo sapiens, IMR-90, 24 h): > 200 µM
melting point: 136 to 137 °C

c1cc(B2OC3(CCCCC3)C3(CCCCC3)O2)ccc1CN1CCNCCNCCNCCNCC1 [17a]
melting point: 43 to 44 °C

sodium mercaptoborate [compound 1, reference compound]
IC50 ([1]; 0–200 μM): > 200 µM
IC50 ([2]; MTT, 0–200 μM, treatment for 24 h): > 200 µM
IC50 [3]: > 200 µM

N[C@@H](Cc1ccc([10B](O)O)cc1)C(=O)O [compound 2, L-4-boronophenylalanine, reference compound]
IC50 [1, 10]: > 200 µM
IC50 ([2]; Homo sapiens, A549, 24 h, MTT, 0–200 μM, treatment for 24 h): > 200 µM
IC50 ([3]; Homo sapiens, IMR-90, 24 h): > 200 µM
relative uptake in the presence of MβCD ([9]; 1.5 mM of MβCD): weak inhibition
relative uptake in the presence of amiloride ([9]; 2 mM of amiloride): increased intracellular uptake

c1cc(CN2CCNCCNCCNCC2)cc(B2OC3(CCCCC3)C3(CCCCC3)O2)c1 [16b]
melting point: 46 to 48 °C
